Consider one substance from PMC12340957, “Interactions between Lipopolysaccharide and Peptide Bacteriocin BacSp222 Influence Their Biological Activities” (ACS Infectious Diseases, 2025).

A short description of data set [1]: Dynamic light scattering, hydrodynamic radius. It is filed as physicochemical. The settings on record: BacSp222 alone at 5, 50, 500 μg/mL, DLS, PBS, 37 °C. As to the method:
For dynamic light scattering experiments, (1) the solution of PBS without Ca^2+ and Mg^2+ or PBS without Ca^2+ and Mg^2+ with (2) 50 μg/mL LPS O55:B5 (IEC), (3) 50 μg/mL LPS O111:B4 (IEC), (4) BacSp222 at concentration 5, 50, and 500 μg/mL, or (5) 50 μg/mL LPS O55/B5 (IEC) + BacSp222 at concentration 5, 50, and 500 μg/mL were incubated for 15 min at 37 °C. Then, the hydrodynamic radius of the LPS and BacSp222 molecules, as well as LPS-BacSp222 complexes, was determined by dynamic light scattering (DLS) on the Prometheus Panta apparatus (NanoTemper, Munich, Germany). Prometheus Standard Capillaries (NanoTemper, Munich, Germany) were used in the experiments, and the measurements were taken at 37 °C. The results were processed by the instrument software (Prometheus Panta Software).

Data set [2] relates to ATCC 25923, ATCC 29663, ATCC 6633, and ATCC 4698. Briefly: Residual bactericidal activity, radial diffusion assay. It counts as cell-based. The conditions noted are these: 10 or 50 μM BacSp222, 16 h, n = 3. As to the method:
The residual bactericidal activity of BacSp222 after preincubation with different LPS serotypes and at different mass proportions was determined using radial diffusion assay toward the following bacteria: ATCC 25923, ATCC 29663, ATCC 6633, and ATCC 4698. BacSp222 at final concentrations of 10 μM (for and ) or 50 μM (for and ) was preincubated in PBS without Ca^2+ and Mg^2+ for 15 min at 37 °C with LPS O55:B5 (IEC) or O111:B4 (PE and IEC) at proportions equivalent to 1:1 or 1:17 mass ratios (BacSp222:LPS). After preincubation, 5 μL aliquots of the solutions were dispensed as drops at different sites of soft Mueller–Hinton Broth II (MHBII, Merck, Darmstadt, Germany) plates containing 0.75% (w/v) agarose and a suspension of the tested bacteria strains. After liquid preparations were entered into the solid medium, the plates were incubated at 37 °C for 16 h, and the antibacterial activity of the studied samples was determined as the diameter of the bacterial growth inhibition zone. In each experiment, the appropriate controls were applied on the plate, and they comprised adequate amounts of BacSp222 and LPS not incubated together.

Data set [3] concerns hemolymph phenoloxidase. The data set can be described thus: Hemolymph phenoloxidase (PO) activation in larvae. It is filed as in vivo, greater wax moth. The conditions noted are these: for PO activity after BacSp222 alone: 5 μL injection. As to the method:
The experiments were based on a previously published protocol. The greater wax moth was reared in the dark on honeybee nest debris at 28 °C and 70% humidity. Last instar larvae were used for the experiments. To test the activation of the phenoloxidase (PO) system by LPS, larvae were divided into groups of 10 insects. One group was injected with PBS buffer without Ca^2+ and Mg^2+, the other one with 1 μg of LPS O55:B5 (IEC) diluted in PBS, and the next one with the mixture of 1 μg of LPS and BacSp222 at concentrations 3, 6, or 30 μM. The last group was treated with the bacteriocin alone at the same concentrations. Before injection, all prepared solutions were preincubated for 30 min at 30 °C for possible complex formation, while the puncture surface of each larva was disinfected with 70% ethanol. Injection was done in the last but one proleg by a Hamilton syringe at a volume of 5 μL. After injection, the larvae were placed in Petri dishes on sterile filter paper. Bleeding larvae were excluded from the experiment. […]
The assay was performed similarly to the previous papers. , The hemolymph was diluted 5 times in apyrogenic water, and 2 μL of this dilution was added to 18 μL of buffer A (50 mM Tris–HCl pH 7.4, 150 mM NaCl, 5 mM CaCl2) in a 96-well plate. After 20 min of preincubation at room temperature, 180 μL of a 2 mM solution of 3,4-dihydroxy- L -phenylalanine (L-DOPA) in buffer B (50 mM Na2HPO4, 50 mM NaH2PO4; pH 6.5) was added, and then, the absorbance at 490 nm was measured immediately (time 0) at the indicated time-points. […]
All experiments were conducted three times independently, except for the DLS and ITC measurements, which were performed once and twice, respectively. […] For experiments concerning measurements of TNF, NO, cellular metabolic activity, TLRs activation, and LAL assay, the statistical significance of differences between the particular result and control was calculated using a two-way ANOVA with Tukey’s multiple comparison test as a posthoc test and shown in figures as asterisks *, **, or ***, indicating p < 0.05, p < 0.01, and p < 0.001, respectively. […]

Ends that are not written are not given here. * marks the point of attachment. For = O=C*

Consider “For-MAGLLRFLLSKGRALYNWAKSHVGKVWEWLKSGATYEQIKEWIENALGWR [BacSp222]”, for which the oligomerization in solution entry in data set [1] was “has a tendency to oligomerize in solutions”. The “effect of LPS on bactericidal potential of BacSp222” value was “completely inhibited the killing potential of BacSp222” in data set [2] (17-fold mass excess of LPS (1:17), all strains but one exception) and “only marginally reduces the bactericidal potential of the peptide” in data set [2] (BacSp222:LPS 1:1 mass ratio, all LPS preparations, all four strains, preincubated 15 min 37 °C, peptide referred to as "bacteriocin"/"the peptide"). Also, the “PO activity after BacSp222 alone” value in data set [3] (3 μM BacSp222 alone (printed "bacteriocin alone")) was “PO activity at a similar level as the injection of PBS buffer”; in data set [3] (6 μM BacSp222 alone), “induced PO activity”. Also, in data set [3] (3 μM BacSp222 preincubated (30 min, 30 °C) and coinjected with 1 μg LPS O55:B5 (IEC), n = 3, printed "inhibited ... to about 50%"), the “inhibition of LPS-induced PO activation” value is recorded as “about 50%”.
